The results in this text go back to article PMC10815079, “α-L-Fucosidases from an Alpaca Faeces Metagenome: Characterisation of Hydrolytic and Transfucosylation Potential” (International Journal of Molecular Sciences, 2024).

Assay in all cases: p-nitrophenol release at […] nm, Michaelis-Menten fit
What all share (type): biochemical, uncultured bacterium (alpaca faeces metagenome)
Common to all, as to details: 50 mM potassium phosphate pH 7.5, 20 °C

Experiment [1] has as its system Fuc25E.
In experiment [2] the test system is Fuc25D.
For experiment [3], the system named is Fuc25A.
Experiment [4] concerns Fuc25C.

What is called Km is the concentration of substrate that gives half-maximal velocity. For the compound `C[C@@H]1O[C@@H](Oc2ccc([N+](=O)[O-])cc2)[C@@H](O)[C@H](O)[C@@H]1O` [pNP-αFuc], the Michaelis constant (Km) in experiment [1] amounted to 85.1 ± 12.9 µM; in experiment [2], 79.7 ± 8.6 µM; in experiment [3], 334 ± 21.4 µM; in experiment [4], 1400 ± 374 µM.
